Results reported in paper PMC11124525, “Pharmacokinetic–Pharmacodynamic Correlation Analysis of Rhodiola crenulata in Rats with Myocardial Ischemia” (Pharmaceuticals, 2024).
Like-named read-outs stand apart in the source and are kept apart here.

Legend:
[1] = PK of five RC components in sham operation administration (SDG, normal) rats after oral RC extract, HPLC-QQQ-MS/MS, DAS; assay type: in vivo, SD rats; details: SD, rat, in vivo, po, 2 g/kg
Method: (§1) The drug concentration in plasma was calculated using the standard curve, and the mean blood concentration was plotted against the time to obtain the mean blood concentration–time curve (Figure 4).
(§2) The rat model of MI was made with Pit. The rats were divided into a sham operation group (SG), sham operation administration group (SDG), model group (MG), and model administration group (MDG) (n = 6 for each group). The MI model was prepared via an intraperitoneal injection (a single time) of Pit in the MG and MDG, with a dosage of 20 U/kg and a volume of 10 mL/kg. At the same time, the rats in the SG and SDG groups were given the same volume of saline in the same way.
(§3) RC extract (2 g/kg, equivalent to human clinical equivalent dose) was given to rats via oral administration in SDG and MDG, and the same volume of normal saline was orally administered to the SG and MG. Rats were fasted for 12 h before the experiment. Blood was collected from the fundus venous plexus at 0, 5, 10, 15, 30, 45 min, 1, 2, 4, 6, 8, 12, and 24 h after in gavage, placed in a centrifuge tube impregnated with heparin sodium, centrifuged at 3500 rpm for 15 min, and then the plasma was collected and divided into two parts. One part was used for biochemical index determination and the other part was used to determine the content of pharmaceutical ingredients in vivo. After the experiment, the rats were sacrificed, and the hearts were placed in paraformaldehyde for histopathological analysis.
(§4) The plasma sample of 100 μL was accurately absorbed, 50 μL internal standard solution (Nimodipine, 500 ng/mL) was added, then 300 μL acetonitrile precipitated protein was added, vortex for 10 min, placed under ultrasound for 3 min, centrifuged at 13,000 rpm for 10 min, and then the supernatant was transferred to another centrifuge tube. It was then concentrated until dry with a rotary evaporator. The residue was redissolved with 100 μL 50% acetonitrile, swirled for 1 min, placed under ultrasonic for 3 min, centrifuged at 13,000 rpm for 10 min, and the supernatant was taken for analysis.
(§5) A validated HPLC-QQQ-MS/MS method was used for the determination of drug-derived components in plasma samples at different time points. The accompanying standard curve was substituted to calculate the content of the compounds to be measured, and then the PK parameters were calculated using DAS software (version 3.2.8), and the blood concentration–time curve was plotted using GraphPad Prism (version 8.0.2). PK behavior was compared between the sham operation and model group, and PK models were established, respectively.

[2] = PK of five RC components in pituitrin-induced myocardial ischemia (MDG) rats after oral RC extract, HPLC-QQQ-MS/MS, DAS; assay type: in vivo, SD rats; details: SD, rat, in vivo, po, 2 g/kg
Method: as §1, §2, §3, §4, §5

AST = test: PK-PD sigmoid-Emax model, PD index AST in MDG rats; assay type: in vivo, SD rats; set-up: unit not given beside the values
CK = test: PK-PD sigmoid-Emax model, PD index CK in MDG rats; assay type: in vivo, SD rats; set-up: Emax: unit not given beside the values
HBDH = test: PK-PD sigmoid-Emax model, PD index HBDH in MDG rats; assay type: in vivo, SD rats; set-up: unit not given beside the values
SOD = test: PK-PD sigmoid-Emax model, PD index SOD in MDG rats; assay type: in vivo, SD rats; set-up: Ke0: unit not given beside the values
[3] = for Stability RE (%): rat plasma, n = 6
Method: A series concentration mixed reference solution with different concentrations was added to 100 μL plasma, and was treated according to the method under Section 4.6 to obtain the matrix standard curve sample. Samples with concentrations of 400, 100, and 10 ng/mL, respectively, were taken as quality control (QC) samples of high, medium, and low concentrations (HQC, MQC, LQC). The method was validated, including linearity, inter-day/intra-day precision, repeatability, stability, extraction recovery, and matrix effect, according to FDA bioanalytical method validation guidelines.

[4] = myocardial infarction induced by isoproterenol; cited from earlier work
LDH = test: PK-PD sigmoid-Emax model, PD index LDH in MDG rats
From the text: Subsequently, we incorporated the PK and PD data to conduct PK-PD modeling through DAS.
Therefore, PK-PD correlation analysis was used in this study, linking dynamic concentration–time processes and effect–time profile relationships [20, 21, 22]. […] The model adopted in this study is the S-Emax model. In the equation, γ means the shape factor in the formula, affecting the slope and determining the steepness of the curve. Emax can provide the maximum response intensity, and ED50 is for evaluating the safety of the drug, which is understood as the amount of the drug that causes 50% of the maximum response intensity.
Plasma creatine kinase (CK), hydroxybutyrate dehydrogenase (HBDH), lactate dehydrogenase (LDH), and superoxide dismutase (SOD) activity was determined using an automatic biochemical analyzer.
The activity of the CK, HBDH, LDH, and SOD of plasma samples collected at different time points was determined using an automatic biochemical analyzer for PD index evaluation. […] Two compartmental methods were used, employing the drug and statistics, which was supplied by the Chinese Pharmacological Society. Then, the efficacy indicators were fitted in the PK-PD model.

SMILES: O=C(O)c1cc(O)c(O)c(O)c1 [Gallic Acid, gallic acid]
- AUC(0-inf) [1]: 550 ± 169 ng·h/mL
- AUC(0-t) [1]: 475 ± 112 ng·h/mL
- CL/F [1]: 165 mL/min/kg
- Cmax [1]: 103 ± 16.2 ng/mL
- MRT [1]: 4.32 ± 1.26 h
- MRT inf [1]: 8.92 ± 5.98 h
- Tmax [1]: 0.92 ± 0.13 h
- Vd/F [1]: 116 ± 83.1 L/kg
- half-life [1]: 10.2 ± 8.73 h
- AUC(0-inf) [2]: 664 ± 221 ng·h/mL
- AUC(0-t) [2]: 531 ± 60.9 ng·h/mL
- CL/F [2]: 136 mL/min/kg
- Cmax [2]: 130 ± 19.9 ng/mL
- MRT [2]: 5.53 ± 0.59 h
- MRT inf [2]: 13.6 ± 10.6 h
- Vd/F [2]: 134 ± 68.9 L/kg
- half-life [2]: 13.8 ± 10.9 h
- Tmax ([2]; Tmax): 0.92 ± 0.13 h
- Tmax ([2]; Tmax (approximate)): ~1 h
- Emax (AST): 1375.057
- Ke0 (AST): 2.998
- Emax (CK): 2290.745
- Ke0 (CK): 1.909
- Emax (HBDH): 3540.625
- Ke0 (HBDH): 0.439
- Emax (SOD): 73.435
- Ke0 (SOD): 0.022
- Stability RE (%) ([3]; 4 °C, 48 h, spiked 10 ng/mL): 100.2%
- Stability RE (%) ([3]; 4 °C, 48 h, spiked 50 ng/mL): 103.3%
- Stability RE (%) ([3]; 4 °C, 48 h, spiked 400 ng/mL): 99.11%
- Stability RE (%) ([3]; three freeze–thaw cycles, spiked 10 ng/mL): 98.58%
- Stability RE (%) ([3]; three freeze–thaw cycles, spiked 50 ng/mL): 105.6%
- Stability RE (%) ([3]; three freeze–thaw cycles, spiked 400 ng/mL): 90.26%
- Stability RE (%) ([3]; −80 °C, 10 days, spiked 10 ng/mL): 99.77%
- Stability RE (%) ([3]; −80 °C, 10 days, spiked 400 ng/mL): 96.65%
- Stability in plasma samples (in words) ([3]; simulated sample storage, handling and analysis (48 h at 4 °C and 10 days in 3 freeze–thaw cycles)): stable
- CLZ/F in modeled rats vs normal rats [4]: significantly decreased
- T1/2 and MRT in modeled rats vs normal rats [4]: prolonged
- Emax (LDH): 580.413
